Data: PubChem BioAssay AID1549 (Sanford-Burnham Center for Chemical Genomics, 2009)
Calls of active or inactive are those of the source. How the calls were made is not given here.

These compounds were tested against Influenza A virus M2 proton channel (A/TW/4845/1999 H1N1) (assay: M2 proton channel binding, NMR based, influenza A virus H1N1 strain (AID 1549)). Conditions: NMR binding screen, M2 protein.

Compound	Kd
CC(=O)Oc1ccc2c(c1OC(C)=O)OCC1(O)Cc3c(cc(OC(C)=O)c(OC(C)=O)c3OC(C)=O)C21 (centres undefined)	> 4 mM (inactive)
O=C(O)CCCNC(=O)c1ccccc1C(=O)O	> 4 mM (inactive)
CCSc1nnc(-c2ccccc2N)c(=O)[nH]1	> 4 mM (inactive)
Cc1cc(NC(=O)c2c(F)c(F)c(F)c(F)c2F)no1	> 4 mM (inactive)
O=C(O)C1CN2CCC1CC2 (centres undefined)	> 4 mM (inactive)
Nc1nc2ccc(N3CCOCC3)cc2s1	> 4 mM (inactive)
N#Cc1cc2c(nc1SCc1ccncc1)CCC2	> 4 mM (inactive)
O=C(O)Cc1n[nH]c(=O)c2ccccc12	> 4 mM (inactive)
O=C1C=C(Nc2ccccc2O)c2ccccc2C1=O	> 4 mM (inactive)
Oc1ccccc1-c1nnco1	> 4 mM (inactive)
COc1ccc(CN2CCC(O)CC2)c(O)c1	> 4 mM (inactive)
Cn1c(CO)nc2ccccc21	> 4 mM (inactive)
O=C(O)CCNc1n[nH]c(=O)[nH]c1=O	> 4 mM (inactive)
COc1ccccc1NC(C)=O	> 4 mM (inactive)
CC1=C2[C@H]3OC(=O)[C@@H](C)[C@@H]3CC[C@@]2(C)C=CC1=O	> 4 mM (inactive)
OCc1ccc(-n2cccn2)cc1	> 4 mM (inactive)
COc1cc(/C=C/C(=O)/C=C(O)/C=C/c2ccc(O)c(OC)c2)ccc1O	> 4 mM (inactive)
O=C1CCC(=O)N1c1ccc(O)cc1	> 4 mM (inactive)
CS(=O)(=O)N1CCN(C(=O)c2ccccc2)CC1	> 4 mM (inactive)
O=c1/c(=C/c2cccs2)sc2ncnn12	> 4 mM (inactive)
O=C(O)C1CSC(c2cc3ccccc3nc2Cl)N1 (centres undefined)	> 4 mM (inactive)
Cc1cc(O)c(C=O)c(O)c1C(=O)O	> 4 mM (inactive)
O=C(O)c1csc(-c2cccs2)n1	> 4 mM (inactive)
CC1(C)C=CC(=O)[C@@]2(C)C1CC(=O)[C@]1(C)C2CC[C@@]2(C)[C@H](c3ccoc3)OC(=O)C3OC321 (some centres undefined)	> 4 mM (inactive)

Compound	Kd
NC(=O)CSc1nnc2ccc(-c3ccco3)nn12	> 4 mM (inactive)
NCC1CN(Cc2ccccc2)CCO1 (centres undefined)	> 4 mM (inactive)
Cc1nc2sccn2c1C(=O)O	> 4 mM (inactive)
O=C(c1ccccc1)c1ccccc1C(=O)N1CCCC1	> 4 mM (inactive)
Cc1cc(C)c2nncn2n1	> 4 mM (inactive)
O=C(O)C1CC2CC1CCC2O (centres undefined)	> 4 mM (inactive)
Cc1ccc2c(c1)CCCN2C(=O)c1ccncc1	> 4 mM (inactive)
CCCNC(=O)c1cnc2n(c1=O)CCS2	> 4 mM (inactive)
O=C1CNCc2[nH]c3ccccc3c2N1c1ccccc1	> 4 mM (inactive)
NC(=O)C(=O)Nc1nc(-c2ccccc2)cs1	> 4 mM (inactive)
Cc1cc(C)n(S(=O)(=O)c2cc(C)c(C)cc2C)n1	> 4 mM (inactive)
CC1(NC(=O)NCc2ccccc2)CCS(=O)(=O)C1 (centres undefined)	> 4 mM (inactive)
Cn1c(=O)[nH]c(=O)c2nsnc21	> 4 mM (inactive)
O=C(O)CCC1=C2c3ccccc3CCN2C(=O)CC1	> 4 mM (inactive)
O=C1NC(=S)N/C1=C/c1ccsc1	> 4 mM (inactive)
COc1cc(C(=O)O[C@H]2CC[C@@]3(C)[C@@H]4CC[C@H]5[C@]6(O)C[C@H](O)[C@@]7(O)[C@@H](CN8C[C@@H](C)CC[C@H]8[C@@]7(C)O)[C@]6(O)C[C@@]53OC24O)cc(OC)c1OC	> 4 mM (inactive)
O=C(Nc1cnccn1)c1cccs1	> 4 mM (inactive)
Cc1ccc(N2C(=O)CC(=O)NC2=O)cc1	> 4 mM (inactive)
CN1CCC(N2CCN(C)CC2)CC1	> 4 mM (inactive)
Cc1ccc(CO)o1	> 4 mM (inactive)
Nc1ccc(N2CCOCC2)c(Cl)c1	> 4 mM (inactive)
O=S(=O)(c1ccc(F)c(Cl)c1)N1CCCC1	> 4 mM (inactive)
O=c1[nH]c(=S)c2c(n1-c1ccccc1)CCC2	> 4 mM (inactive)
Nc1ncnc(NCCCO)c1[N+](=O)[O-]	> 4 mM (inactive)

Compound	Kd
CCOC(=O)C1=C(O)CCN(C)C1	> 4 mM (inactive)
COc1cc(S(=O)(=O)N(C)C)ccc1F	> 4 mM (inactive)
Nc1cc2ccccc2cn1	> 4 mM (inactive)
NC(=O)CSc1ccccn1	> 4 mM (inactive)
O=C(Nc1cccc2ncccc12)c1cccnc1	> 4 mM (inactive)
COc1ccc(-c2coc3c(OC)c(OC)cc(OC)c3c2=O)cc1	> 4 mM (inactive)
O=C(O)Cn1c(C(F)(F)F)nc2ccccc21	> 4 mM (inactive)
COn1c(=O)c(-c2ccco2)[n+]([O-])c2ccccc21	> 4 mM (inactive)
COc1ccc(-c2cc(=O)c3c(O)cc(O[C@@H]4O[C@H](CO[C@H]5O[C@H](C)[C@@H](O)[C@H](O)[C@@H]5O)[C@@H](O)[C@H](O)[C@H]4O)cc3o2)cc1O	> 4 mM (inactive)
CC1CN(Cc2ccccn2)CCC1=O (centres undefined)	> 4 mM (inactive)
CC1(C(=O)O)CC2C=CC1C2 (centres undefined)	> 4 mM (inactive)
Cn1c(O)c(/C=C2\C=CC=N2)c(=O)[nH]c1=O	> 4 mM (inactive)
CC(=O)Nc1ccc(S(=O)(=O)Nc2cc(C)on2)cc1	> 4 mM (inactive)
Nc1c(Nc2ccccc2)c2ccccc2oc1=O	> 4 mM (inactive)
COc1ccc(C[C@H]2NC[C@H](O)[C@H]2OC(C)=O)cc1	> 4 mM (inactive)
CC(=O)NCC1(c2ccccc2)CCOCC1	> 4 mM (inactive)
Cc1ccc(NC(=O)C2CCCNC2=O)nc1 (centres undefined)	> 4 mM (inactive)
Cc1cc(SCC(=O)Nc2nccs2)nc(=O)[nH]1	> 4 mM (inactive)
CC1=NN2C(=N)/C(=C\c3cccs3)C(=O)N=C2S1	> 4 mM (inactive)
CCOC(=O)c1c(C)cc(OC)cc1O	> 4 mM (inactive)
O=C(NCc1ccco1)c1ccc(Br)s1	> 4 mM (inactive)
C=C1CCC(C2CC(=O)OC2=O)C(=O)CCC2C1CC2(C)C (centres undefined)	> 4 mM (inactive)
OCc1ccccc1CN1CCOCC1	> 4 mM (inactive)
CN(C)C(=O)Nc1ccc2c(c1)nnn2C	> 4 mM (inactive)

Compound	Kd
CC(=O)OC1CCC23CC1(C)CCC2C(C)(C)CC3OC(C)=O (centres undefined)	> 4 mM (inactive)
Cn1nnc2cc(C(=O)NC3CCCCC3)ccc21	> 4 mM (inactive)
c1ccc(CCc2nc(-c3ccncc3)no2)cc1	> 4 mM (inactive)
Cc1ccccc1C(=O)Nc1cccc(N)c1	> 4 mM (inactive)
N=C1/C(=C\c2ccco2)C(=O)N=C2SC=NN12	> 4 mM (inactive)
Cc1ccccc1-n1c(-c2ccncc2)n[nH]c1=S	> 4 mM (inactive)
Cc1occc1C(=O)Nc1ccc(C(N)=O)cc1	> 4 mM (inactive)
Nc1nc(NCc2ccco2)nn1-c1ccccc1	> 4 mM (inactive)
COC(=O)c1cnccc1C(F)(F)F	> 4 mM (inactive)
CC(=O)NCc1nc2ccccc2[nH]1	> 4 mM (inactive)
Cn1c(CSc2nc3ccccc3s2)n[nH]c1=S	> 4 mM (inactive)
c1cc(CNc2ccc3c(c2)OCCO3)ccn1	> 4 mM (inactive)
O=C1CC(NCc2ccco2)C(=O)NN1 (centres undefined)	> 4 mM (inactive)
CSc1nnc2c(n1)OC=Nc1ccccc1-2	> 4 mM (inactive)
Nc1ccc(S(=O)(=O)Nc2nccs2)cc1	> 4 mM (inactive)
Cc1ccccc1NC(=O)c1ocnc1C	> 4 mM (inactive)
Nc1cc(F)ccc1-n1ccnc1	> 4 mM (inactive)
COc1cc2c(cc1OC)[C@@H]1C(=O)c3ccc4oc(C(C)C)cc4c3O[C@@H]1CO2	> 4 mM (inactive)
COCCn1c(SC)nc2c1c(=O)[nH]c(=O)n2C	> 4 mM (inactive)
O=C(O)CCc1nc2ccccc2[nH]c1=O	> 4 mM (inactive)
Nc1cccc(S(=O)(=O)N2CCCCC2)c1	> 4 mM (inactive)
CN(C)S(=O)(=O)Nc1ccc(Br)cc1F	> 4 mM (inactive)
O=C(c1cccs1)N1CCCc2ccccc21	> 4 mM (inactive)
CCSc1nc2ccccc2[nH]1	> 4 mM (inactive)

Compound	Kd
CC1=C(/C=C/C(C)=C/C=C/C(C)=C/C=C/C=C(C)/C=C/C=C(C)/C=C/C(=O)[C@]2(C)C[C@@H](O)CC2(C)C)C(C)(C)C[C@H](O)C1	> 4 mM (inactive)
NNc1ncnc2sccc12	> 4 mM (inactive)
CC(C)C1COc2cc3oc(=O)ccc3cc2O1 (centres undefined)	> 4 mM (inactive)
O=C(O)Cn1nnn(-c2ccccc2)c1=S	> 4 mM (inactive)
COc1cccc(Oc2ccc(N)cc2)c1	> 4 mM (inactive)
O=C(Nc1cnccn1)c1cccc(C(F)(F)F)c1	> 4 mM (inactive)
NS(=O)(=O)c1ccc(NC(=O)/C=C\C(=O)O)cc1	> 4 mM (inactive)
NCCNC(=S)Nc1ccccc1	> 4 mM (inactive)
CC1(C)C[C@@H]2C(=O)CC[C@H]3O[C@]3(C)CC[C@H]21	> 4 mM (inactive)
CC(=O)Nc1ccc(S(=O)(=O)NCC2CCCO2)cc1 (centres undefined)	> 4 mM (inactive)
CCOc1cccc(C(=O)c2ccc(O)c(O)c2O)c1	> 4 mM (inactive)
O=C(O)CNC(=O)c1ccccc1	> 4 mM (inactive)
CCOC(=O)c1cc(C)n(C)n1	> 4 mM (inactive)
CC(=O)O[C@H]1C[C@@H](OC(C)=O)C(C)(C)C2CC(=O)[C@]3(C)C(CC[C@@]4(C)[C@H](c5ccoc5)OC(=O)[C@H]5O[C@]543)[C@]21C (some centres undefined)	> 4 mM (inactive)
Nc1ccccc1N=C1CNC(=O)C1	> 4 mM (inactive)
O=C(O)CN1CCN(C2CCCC2)CC1	> 4 mM (inactive)
O=C(O)c1c[nH]c2ccccc12	> 4 mM (inactive)
C#CCCCCCCCCCCCC(O)CC(O)COC(C)=O (centres undefined)	> 4 mM (inactive)
CCCn1c(C)cc(=O)[nH]c1=O	> 4 mM (inactive)
CC(=O)c1cc(C)ccc1OC(=O)c1cccnc1	> 4 mM (inactive)
COC(=O)/C(C)=C\CC12OC(C)(C)C3CC(C=C4C(=O)c5c(OC)c6c(c(CC=C(C)C)c5OC431)OC(C)(CCC=C(C)C)C=C6)C2=O (centres undefined)	> 4 mM (inactive)
COCc1nn2c(N)c(C#N)cnc2c1-c1ccccc1	> 4 mM (inactive)
O=C(Nc1nncs1)Oc1ccccc1	> 4 mM (inactive)
